Source: patent US20140120087A1, “TRIAZOLOPYRIDINES” (BAYER INTELLECTUAL PROPERTY GMBH, priority 2011, published 2014)

Tests used:
Mps-1 kinase [1] = target: T1, Mps-1 kinase (Homo sapiens, UniProt P33981); experiment: Mps-1 kinase assay with 10 μM ATP (TR-FRET)
T1 sequence (P33981 1-857): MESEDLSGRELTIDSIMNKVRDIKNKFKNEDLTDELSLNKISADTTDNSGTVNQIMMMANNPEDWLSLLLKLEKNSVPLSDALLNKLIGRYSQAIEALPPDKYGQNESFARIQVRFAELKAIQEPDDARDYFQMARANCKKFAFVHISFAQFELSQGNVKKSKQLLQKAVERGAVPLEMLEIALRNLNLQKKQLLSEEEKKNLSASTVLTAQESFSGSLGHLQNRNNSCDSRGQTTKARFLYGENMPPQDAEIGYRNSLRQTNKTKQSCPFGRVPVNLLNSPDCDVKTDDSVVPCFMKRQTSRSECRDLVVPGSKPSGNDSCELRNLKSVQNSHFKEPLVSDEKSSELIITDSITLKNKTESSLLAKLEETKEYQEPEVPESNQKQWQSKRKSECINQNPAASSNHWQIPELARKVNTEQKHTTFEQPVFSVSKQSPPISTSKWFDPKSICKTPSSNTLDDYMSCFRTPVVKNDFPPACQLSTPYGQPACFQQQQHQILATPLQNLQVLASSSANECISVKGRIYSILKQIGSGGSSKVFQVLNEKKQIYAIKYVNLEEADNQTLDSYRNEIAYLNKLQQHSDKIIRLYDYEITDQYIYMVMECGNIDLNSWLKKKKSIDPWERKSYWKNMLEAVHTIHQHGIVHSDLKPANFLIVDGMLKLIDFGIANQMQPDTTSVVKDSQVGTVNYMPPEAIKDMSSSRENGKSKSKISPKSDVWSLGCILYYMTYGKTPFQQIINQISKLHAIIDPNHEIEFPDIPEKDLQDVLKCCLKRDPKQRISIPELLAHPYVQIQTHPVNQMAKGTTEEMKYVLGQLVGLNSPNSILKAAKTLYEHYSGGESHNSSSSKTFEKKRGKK

Mps-1 kinase [2] = target: T1, Mps-1 kinase; experiment: Mps-1 kinase assay with 2 mM ATP (TR-FRET)

Row | SMILES | IC50 (Mps-1 kinase [1]) | IC50 (Mps-1 kinase [2])
1 | COc1cc(C(=O)NCCCF)ccc1Nc1nc2ccc(-c3ccc(NC(=O)Cc4ccc(F)cc4)cc3)cn2n1 [Example 12.11, 4-{[6-(4-{[(4-fluorophenyl)-acetyl]amino}phenyl)[1,2,4]triazolo[1,5-a]pyridin-2-yl]amino}-N-(3-fluoro-propyl)-3-methoxybenzamide] | ≤ 1 nM | 1.2 nM
2 | COc1cc(S(C)(=O)=O)c(F)cc1Nc1nc2ccc(-c3ccc(NC(=O)Cc4ccc(F)cc4)cc3)cn2n1 [Example 12.12, N-[4-(2-{[5-fluoro-2-methoxy-4-(methylsulfonyl)-phenyl]amino}[1,2,4]-triazolo[1,5-a]pyridin-6-yl)phenyl]-2-(4-fluoro-phenyl)acetamide] | ≤ 1 nM | 13 nM
3 | COc1cc(S(=O)(=O)NC(C)(C)C)ccc1Nc1nc2ccc(-c3ccc(NC(=O)Cc4ccc(F)cc4)cc3)cn2n1 [Example 12.15, N-[4-(2-{[4-(tert-butyl-sulfamoyl)-2-methoxy-phenyl]amino}[1,2,4]-triazolo[1,5-a]pyridin-6-yl)phenyl]-2-(4-fluoro-phenyl)acetamide] | ≤ 1 nM | 1.6 nM
4 | CCN(Cc1ccc(Nc2nc3ccc(-c4ccc(NC(=O)Cc5ccc(F)cc5)cc4)cn3n2)c(OC)c1)C(C)(C)CO [Example 12.16, N-(4-{2-[(4-{[ethyl(1-hydroxy-2-methylpropan-2-yl)amino]methyl}-2-methoxyphenyl)amino]-[1,2,4]triazolo[1,5-a]pyridin-6-yl}phenyl)-2-(4-fluorophenyl)acetamide] | ≤ 1 nM | ≤ 1 nM
5 | COc1cc(C(C)(C)O)ccc1Nc1nc2ccc(-c3ccc(NC(=O)Cc4ccc(F)cc4)cc3)cn2n1 [Example 12.17, 2-(4-fluorophenyl)-N-[4-(2-{[4-(2-hydroxypropan-2-yl)-2-methoxyphenyl]amino}-[1,2,4]triazolo[1,5-a]pyridin-6-yl)phenyl]acetamide] | ≤ 1 nM | ≤ 1 nM
6 | COc1ccc(Nc2nc3ccc(-c4ccc(NC(=O)Cc5ccc(F)cc5)cc4)cn3n2)c(OC)c1 [Example 12.18, N-(4-{2-[(2,4-dimethoxy-phenyl)amino][1,2,4]-triazolo[1,5-a]pyridin-6-yl}phenyl)-2-(4-fluoro-phenyl)acetamide] | ≤ 1 nM | 1.5 nM
7 | CCOc1cc(C(=O)N(C)CC)ccc1Nc1nc2ccc(-c3ccc(NC(=O)Cc4ccc(F)cc4)cc3)cn2n1 [Example 12.19, 3-ethoxy-N-ethyl-4-{[6-(4-{[(4-fluorophenyl)acetyl]-amino}phenyl)[1,2,4]-triazolo[1,5-a]pyridin-2-yl]amino}-N-methyl-benzamide] | ≤ 1 nM | ≤ 1 nM
8 | CCOc1cc(C(=O)NCCN(C)C)ccc1Nc1nc2ccc(-c3ccc(NC(=O)Cc4ccc(F)cc4)cc3)cn2n1 [Example 12.20, N-[2-(dimethylamino)ethyl]-3-ethoxy-4-{[6-(4-{[(4-fluorophenyl)acetyl]amino}-phenyl)[1,2,4]triazolo[1,5-a]pyridin-2-yl]amino}-benzamide] | ≤ 1 nM | ≤ 1 nM
9 | CS(=O)(=O)CCNC(=O)c1ccc(Nc2nc3ccc(-c4ccc(NC(=O)Cc5ccc(F)cc5)cc4)cn3n2)c(OCC(F)(F)F)c1 [Example 12.21, 4-{[6-(4-{[(4-fluorophenyl)-acetyl]amino}phenyl)[1,2,4]triazolo[1,5-a]pyridin-2-yl]amino}-N-[2-(methyl-sulfonyl)ethyl]-3-(2,2,2-trifluoroethoxy)benzamide] | ≤ 1 nM | ≤ 1 nM
10 | CC(C)(CO)NC(=O)c1ccc(Nc2nc3ccc(-c4ccc(NC(=O)Cc5ccc(F)cc5)cc4)cn3n2)c(OCC(F)(F)F)c1 [Example 12.22, 4-{[6-(4-{[(4-fluorophenyl)-acetyl]amino}phenyl)[1,2,4]triazolo[1,5-a]pyridin-2-yl]amino}-N-(1-hydroxy-2-methylpropan-2-yl)-3-(2,2,2-trifluoroethoxy)benzamide] | ≤ 1 nM | ≤ 1 nM
11 | CN(C)CCNC(=O)c1ccc(Nc2nc3ccc(-c4ccc(NC(=O)Cc5ccc(F)cc5)cc4)cn3n2)c(OCC(F)(F)F)c1 [Example 12.23, N-[2-(dimethylamino)ethyl]-4-{[6-(4-{[(4-fluorophenyl)-acetyl]amino}phenyl)[1,2,4]triazolo[1,5-a]pyridin-2-yl]amino}-3-(2,2,2-trifluoro-ethoxy)benzamide] | ≤ 1 nM | ≤ 1 nM
12 | NC(=O)c1ccc(Nc2nc3ccc(-c4ccc(NC(=O)Cc5ccc(F)cc5)cc4)cn3n2)c(OC(F)(F)F)c1 [Example 12.25, 4-{[6-(4-{[(4-fluorophenyl)-acetyl]amino}phenyl)[1,2,4]triazolo[1,5-a]pyridin-2-yl]amino}-3-(trifluoro-methoxy)benzamide] | ≤ 1 nM | 2.7 nM
13 | CC(C)S(=O)(=O)c1ccc(Nc2nc3ccc(-c4ccc(NC(=O)Cc5ccc(F)cc5)cc4)cn3n2)c(OC(F)F)c1 [Example 12.26, N-[4-(2-{[2-(difluoro-methoxy)-4-(propan-2-ylsulfonyl)phenyl]amino}-[1,2,4]triazolo[1,5-a]pyridin-6-yl)phenyl]-2-(4-fluorophenyl)acetamide] | ≤ 1 nM | 1.2 nM
14 | O=C(Cc1ccc(F)cc1)Nc1ccc(-c2ccc3nc(Nc4ccc(F)cc4OC(F)F)nn3c2)cc1 [Example 12.27, N-[4-(2-{[2-(difluoro-methoxy)-4-fluorophenyl]-amino}[1,2,4]triazolo[1,5-a]pyridin-6-yl)phenyl]-2-(4-fluorophenyl)acetamide] | ≤ 1 nM | 9 nM
15 | Cc1cc(C(N)=O)ccc1Nc1nc2ccc(-c3ccc(NC(=O)Cc4ccc(F)cc4)cc3)cn2n1 [Example 12.28, 4-{[6-(4-{[(4-fluorophenyl)-acetyl]amino}phenyl)[1,2,4]triazolo[1,5-a]pyridin-2-yl]amino}-3-methyl-benzamide] | ≤ 1 nM | ≤ 1 nM
16 | Cc1cc(C(=O)NCC(F)(F)F)ccc1Nc1nc2ccc(-c3ccc(NC(=O)Cc4ccc(F)cc4)cc3)cn2n1 [Example 12.29, 4-{[6-(4-{[(4-fluorophenyl)-acetyl]amino}phenyl)[1,2,4]triazolo[1,5-a]pyridin-2-yl]amino}-3-methyl-N-(2,2,2-trifluoroethyl)-benzamide] | ≤ 1 nM | 2.3 nM
17 | Cc1cc(C(=O)NCCF)ccc1Nc1nc2ccc(-c3ccc(NC(=O)Cc4ccc(F)cc4)cc3)cn2n1 [Example 12.30, N-(2-fluoroethyl)-4-{[6-(4-{[(4-fluorophenyl)acetyl]-amino}phenyl)[1,2,4]-triazolo[1,5-a]pyridin-2-yl]amino}-3-methyl-benzamide] | ≤ 1 nM | 4.3 nM
18 | Cc1cc(C(=O)N(C)C)ccc1Nc1nc2ccc(-c3ccc(NC(=O)Cc4ccc(F)cc4)cc3)cn2n1 [Example 12.31, 4-{[6-(4-{[(4-fluorophenyl)-acetyl]amino}phenyl)[1,2,4]triazolo[1,5-a]pyridin-2-yl]amino}-N,N,3-trimethyl-benzamide] | ≤ 1 nM | 3.8 nM
19 | Cc1cc(S(C)(=O)=O)ccc1Nc1nc2ccc(-c3ccc(NC(=O)Cc4ccc(F)cc4)cc3)cn2n1 [Example 12.32, 2-(4-fluorophenyl)-N-[4-(2-{[2-methyl-4-(methyl-sulfonyl)phenyl]amino}-[1,2,4]triazolo[1,5-a]pyridin-6-yl)phenyl]acetamide] | ≤ 1 nM | 2.2 nM
20 | Cc1cc(NS(C)(=O)=O)ccc1Nc1nc2ccc(-c3ccc(NC(=O)Cc4ccc(F)cc4)cc3)cn2n1 [Example 12.34, 2-(4-fluorophenyl)-N-{4-[2-({2-methyl-4-[(methyl-sulfonyl)amino]phenyl}-amino)[1,2,4]triazolo[1,5-a]pyridin-6-yl]phenyl}-acetamide] | ≤ 1 nM | 6.6 nM
21 | COc1ccc(Nc2nc3ccc(-c4ccc(NC(=O)Cc5ccc(F)cc5)cc4)cn3n2)c(C)c1 [Example 12.35, 2-(4-fluorophenyl)-N-(4-{2-[(4-methoxy-2-methyl-phenyl)amino][1,2,4]-triazolo[1,5-a]pyridin-6-yl}-phenyl)acetamide] | ≤ 1 nM | 2.1 nM
22 | Cc1cc(N(C)C)ccc1Nc1nc2ccc(-c3ccc(NC(=O)Cc4ccc(F)cc4)cc3)cn2n1 [Example 12.36, N-[4-(2-{[4-(dimethylamino)-2-methylphenyl]-amino}[1,2,4]triazolo[1,5-a]pyridin-6-yl)phenyl]-2-(4-fluorophenyl)acetamide] | ≤ 1 nM | 3.5 nM
23 | CCNC(=O)c1cc(C)c(Nc2nc3ccc(-c4ccc(NC(=O)Cc5ccc(F)cc5)cc4)cn3n2)cn1 [Example 12.37, N-ethyl-5-{[6-(4-{[(4-fluoro-phenyl)acetyl]amino}-phenyl)[1,2,4]triazolo[1,5-a]pyridin-2-yl]amino}-4-methylpyridine-2-carboxamide] | ≤ 1 nM | 13 nM
